Several values for one entry are separate records, joined by “and”; a condition that tells them apart may be missing. Identical values can stand only once.
Tests used:
AMO-1 cells = test: Cell proliferation, XTT-based assay; set-up: species or system human; conditions: Homo sapiens, AMO1, bortezomib alone, XTT, read-out: IC50 (inhibition of cell proliferation)
Protocol: (§1) Cells were collected and distributed in 96-well plates with 5000 cells per well.
(§2) After incubation, plates were analyzed for cell proliferation in a quantitative colorimietric XTT-based assay using the cell proliferation kit II (ROCHE, Cell Proliferation Kit II, Cat. No.: 11465015001). For subsequent measurement plates were subjected to Tecan Genios Reader and absorbance at 492 nm was detected.
(§3) Increasing amounts of Bortezomib (Velcade®, Lot: No.: #9AZSY00) were applied to AMO-1, LP-1, NCI-H929 and RPMI-8226 cells and incubated for 24 h, 48 h and 72 h. After incubation, period plates were analyzed for cell proliferation in a quantitative colorimietric XTT-based assay using the cell proliferation kit II (ROCHE, Cell Proliferation Kit II, Cat. No.: 11465015001). For subsequent measurement, plates were subjected to Tecan Genios Reader and absorbance at 492 nm was detected.

LP-1 cells [1] = test: Cell proliferation, XTT-based assay; conditions: Homo sapiens, bortezomib alone, read-out: IC50 (inhibition of cell proliferation)
Protocol: as §3

RPMI-8226 cells = test: Cell proliferation, XTT-based assay; conditions: Homo sapiens, bortezomib alone, read-out: IC50 (inhibition of cell proliferation)
Protocol: as §3

LP-1 cells [2] = test: ADCC with human PBMCs, flow cytometry (CalceinAM/PI); format: cell-based; conditions: LP-1 target cells treated with bortezomib before MOR202 15 μg/ml; FIG. 10
Protocol: Using the methods described in Example 4, the ADCC effect of combining bortezomib and MOR202 was analyzed. Here, the target cells were treated with bortezomib prior to the treatment with MOR202. Both target cells. NCI-H929 and LP-1 cells were tested.

NCI-H929 MM cells = test: NCI-H929 bone lysis SCID mouse model, MOR202 and BOR (MicroCT); format: in vivo, SCID mice
Description: 63 SCID mice were inoculated on Day (−7) intra-tibially with 2.5×10^6 NCI-H929 MM cells in order to induce bone lysis. Bortezomib (Groups A and AB) and Vehicle Control (Group C) treatments started on Day (−1). MOR202 treatments (Groups B and AB) started on Day 0. Treatment continued for 6 weeks.
MicroCT Scan was used to assess bone lysis and included a 3-dimensional analysis comprising Total Bone Volume (TBV), Trabecular Bone Volume (Tb.BV), Trabecular Pattern Factor (Tb.Pf) and Structure Model Index (SMI). Table 10 above defines each of these parameters.

RAMOS cells = conditions: BOR 0.6 mg/kg i.p., MOR202 1 mg/kg i.v.
Protocol: Fifty-five female SCID mice were pre-treated with Cyclophosphamide (75 mg/kg, i.p., twice daily) for two days prior to RAMOS cell inoculation (Day −5 and −4). On the day of inoculation (Day −3), all fifty-five mice were inoculated with 1×10^6 RAMOS cells each (in 100 μL) intravenously into the tail vein. Forty-eight of the mice were randomised by body weight into six groups of eight.
The study continued for 98 days and the measured endpoint was survival.

NCI-H929 cells [3] = test: Cell proliferation, XTT-based assay; conditions: Homo sapiens, NCI-H929, read-out: IC50 (inhibition of cell proliferation)
Protocol: as §1, §2, §3

NCI-H929 cells [4] = test: ADCC with human PBMCs, flow cytometry (CalceinAM/PI); conditions: NCI-H929 target cells treated with bortezomib before MOR202 15 μg/ml; FIG. 9
Protocol: PBMC's were isolated by density gradient centrifugation of freshly isolated human blood. Isolated blood from different donors were layered on a defined volume of Biocoll (Biochrome AG; CAT No.:L6115; LOT No.:1050T) in a Falcon tube and centrifuged at 380 g. The PBMCs were isolated and supplemented with RPMI medium.
Cell suspensions were further incubated for 4 h at 37° C. To detect dead AMO-1 cells, cell suspensions were challenged with propidium iodide (PI) and subsequently analyzed in flow cytometry. Target cells were separated via gating of CalceinAM positive cell populations, and cells killed via ADCC were quantified.
Single and combination doses of 5 μM LEN and 15 μg/ml of MOR03207 and 0.2 or 0.07 μg/ml MOR202 were used.
Single and combination doses of 5 μM LEN and 15 μg/ml of MOR03207 and 0.2* or 0.07 μg/m MOR202 were used.

[5] = Bortezomib 0.6 mg/kg i.p. twice per week, MOR202 3 mg/kg i.p. three times per week, 6 weeks, lower = less bone lysis
[6] = group average of 10 mice, Bortezomib 0.6 mg/kg i.p., MOR202 3 mg/kg i.p., 6 weeks

With CC(C)C[C@H](NC(=O)[C@H](Cc1ccccc1)NC(=O)c1cnccn1)B(O)O [bortezomib] the IC50 (AMO-1 cells) was 3.9 nM, the IC50 (LP-1 cells [1]) was 6.1 nM and the IC50 (RPMI-8226 cells) was 9 nM. For the same compound, the “Enhancement of MOR202 ADCC activity by bortezomib (in words)” value (LP-1 cells [2]) was “enhancement in MOR202 activity”, the “Structure Model Index (SMI), individual mouse” value (NCI-H929 MM cells; [5]) was 2.443 and 2.374 and 2.156 and 2.262 and 2.700 and 2.981 and 3.007 and 2.553 and 2.337 and 2.273 and the “Trabecular Pattern Factor (Tb · Pf), individual mouse” value (NCI-H929 MM cells; [5]) was 25.893 mm^−1 and 26.044 mm^−1 and 16.877 mm^−1 and 23.179 mm^−1 and 32.463 mm^−1 and 33.152 mm^−1 and 34.609 mm^−1 and 31.813 mm^−1 and 27.147 mm^−1 and 23.582 mm^−1. The “Structure Model Index (SMI), Average” value (NCI-H929 MM cells; [6]) was 2.509, the “Trabecular Pattern Factor (Tb · Pf), Average” value (NCI-H929 MM cells; [6]) was 27.476 mm^−1 and the “Reduction of bone lysis compared to vehicle control” value (NCI-H929 MM cells; non-inoculated tibia = 0%, vehicle = 100% bone lysis, MOR202 alone 12 mg/kg, BOR alone 0.6 mg/kg, combination 3 mg/kg MOR202 and 0.6 mg/kg BOR) was 40%. For the same compound, the “Number of mice alive at study termination (day 98)” value (RAMOS cells) was 0/8, the “Day of death (post-inoculation) Mean” value (RAMOS cells; study 98 days) was 19.1 days and the “Day of death (post-inoculation) Median” value (RAMOS cells; study 98 days) was 19 days. For the same compound, the “% ILS (based on median death day)” value (RAMOS cells; vs vehicle control) was −7%, the IC50 (NCI-H929 cells [3]) was 3.3 nM and the “Enhancement of MOR202 ADCC activity by bortezomib (in words)” value (NCI-H929 cells [4]) was “enhancement in MOR202 activity”.

Reference: US9289490B2, “Combinations and uses thereof” (MORPHOSYS AG, priority 2010, dated 2016)
